Experimental data: patent publication US10766869B2, “Triazoles for the treatment of demyelinating dieases” (Vertex Pharmaceuticals Incorporated, priority 2015, dated 2020)
Read-outs that look alike come from different tables or passages of the source.

Tested on: primary rat mixed cortical cells
Assay: In vitro myelination assay (MBP positive myelin strands, fold myelin pixels above background)
Format: cell-based
Settings: Rattus norvegicus; for fold induction at 1 µM: 1.0 μM compound; for fold induction at 10 µM: 10.0 μM compound
Method in brief: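 P1 rat cortical cells (neurons, OPCs, oligodendrocytes, astrocytes, microglia) were cultured 14 days at 37 °C with compound, with half-medium changes containing 1× compound on days 6 and 10. Fixed cells were immunostained for MBP and imaged at 10×. Total MBP myelin pixels per well were expressed as fold above no-compound baseline at 1.0 μM and 10.0 μM.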

[1] = read-out: Fold myelin pixels above background relative to baseline of no added compound
[2] = relative to baseline of no added compound, read-out: Fold myelin pixels above background, 1.0 μM
[3] = relative to baseline of no added compound, read-out: Fold myelin pixels above background, 10.0 μM
[4] = relative to baseline of no added compound, read-out: Fold myelin pixels above background

| Compound | fold induction at 1 µM [2] | fold induction at 10 µM [3] | fold induction at 1 µM [4] | fold induction at 10 µM [4] | further results |
| --- | --- | --- | --- | --- | --- |
| Cc1cc(NCC2CN(C3CC3)CCO2)cc(Nc2ncn(-c3cc(F)cc(F)c3)n2)c1 (stereo not shown) [Compound 968, N3-[(4-cyclopropylmorpholin-2-yl)methyl]-N1-[1-(3,5-difluorophenyl)-1,2,4-triazol-3-yl]-5-methyl-benzene-1,3-diamine] |  |  |  |  | fold induction at 1 µM [1]: 1 to 10; fold induction at 10 µM [1]: 1 to 10 |
| Cc1cc(Nc2ncn(-c3ccncc3)n2)cc(N2CCOCC2)c1 [Compound 84, N-(3-methyl-5-morpholino-phenyl)-1-(4-pyridyl)-1,2,4-triazol-3-amine] | 1000 to 10000 | 10 to 100 |  |  |  |
| Cc1cc(Nc2ncn(-c3cc(F)cc(F)c3)n2)c(C)c(N2CC(N3CCOCC3)C2)c1 [Compound 820, 1-(3,5-difluorophenyl)-N-[2,5-dimethyl-3-(3-morpholinoazetidin-1-yl)phenyl]-1,2,4-triazol-3-amine] |  |  |  |  | fold induction at 1 µM [1]: 1 to 10; fold induction at 10 µM [1]: 10 to 100 |
| Cc1cc(Nc2ncn(-c3cc(F)cc(F)c3)n2)cc(N2CC3(COC3)C2)c1 [Compound 171, 1-(3,5-difluorophenyl)-N-[3-methyl-5-(6-oxa-2-azaspiro[3.3]heptan-2-yl)phenyl]-1,2,4-triazol-3-amine] | 10 to 100 | 100 to 1000 |  |  |  |
| CCc1cc(Nc2ncn(-c3cccc(F)c3F)n2)cc(N2CCN(C3COC3)CC2)c1 [Compound 276, 1-(2,3-difluorophenyl)-N-[3-ethyl-5-[4-(oxetan-3-yl)piperazin-1-yl]phenyl]-1,2,4-triazol-3-amine] | ≤ 1 | 1 to 10 |  |  |  |
| Cc1cc(Nc2cc(C)[nH]n2)cc(Nc2ncn(-c3ccccc3)n2)c1 [Compound 699, 5-methyl-N3-(5-methyl-1H-pyrazol-3-yl)-N1-(1-phenyl-1,2,4-triazol-3-yl)benzene-1,3-diamine] |  |  | 1 to 10 | ≤ 1 |  |
| Cc1cc(Nc2ncn(-c3cc(F)cc(F)c3)n2)cc([C@]2(C)CN(C)C(=O)O2)c1 (single isomer, unassigned) [Compound 796] |  |  |  |  | fold induction at 1 µM [1]: 10 to 100; fold induction at 10 µM [1]: ≤ 1 |
| Cc1cc(Nc2ncn(-c3cccc(F)c3)n2)cc(N2CCOCC2)c1 [Compound 27, 1-(3-fluorophenyl)-N-(3-methyl-5-morpholino-phenyl)-1,2,4-triazol-3-amine] | 1000 to 10000 | 100 to 1000 |  |  |  |
| [2H]C1(N2C([2H])([2H])C([2H])([2H])N(c3cc(C)cc(Nc4ncn(-c5cc(F)cc(F)c5)n4)c3)C([2H])([2H])C2([2H])[2H])COC1 [Compound 997, 1-(3,5-difluorophenyl)-N-[3-methyl-5-[2,2,3,3,5,5,6,6-octadeuterio-4-(3-deuteriooxetan-3-yl)piperazin-1-yl]phenyl]-1,2,4-triazol-3-amine] |  |  |  |  | fold induction at 1 µM [1]: 100 to 1000; fold induction at 10 µM [1]: ≤ 1 |
| Cc1cc(Nc2ncn(-c3cc(F)cc(F)c3)n2)cc(OC2CCN(C3COC3)CC2)c1 [Compound 433, 1-(3,5-difluorophenyl)-N-[3-methyl-5-[[1-(oxetan-3-yl)-4-piperidyl]oxy]phenyl]-1,2,4-triazol-3-amine] |  |  | 100 to 1000 | 100 to 1000 |  |
| Cc1cc(Nc2ncn(-c3cc(F)cc(F)c3)n2)cc(N2CC(N3CCCC3=O)C2)c1 [Compound 542, 1-[1-[3-[[1-(3,5-difluorophenyl)-1,2,4-triazol-3-yl]amino]-5-methyl-phenyl]azetidin-3-yl]pyrrolidin-2-one] |  |  | 10 to 100 | 10 to 100 |  |
| COc1cc(F)cc(-n2cnc(Nc3cc(C)cc(N4CCN(C5COC5)CC4)c3)n2)c1 [Compound 56, 1-(3-fluoro-5-methoxy-phenyl)-N-[3-methyl-5-[4-(oxetan-3-yl)piperazin-1-yl]phenyl]-1,2,4-triazol-3-amine] | 100 to 1000 | 100 to 1000 |  |  |  |
| COCc1cc(-n2cnc(Nc3cc(C4CC4)cc(N4CCN(C5COC5)CC4)c3)n2)ncn1 [Compound 353, N-[3-cyclopropyl-5-[4-(oxetan-3-yl)piperazin-1-yl]phenyl]-1-[6-(methoxymethyl)pyrimidin-4-yl]-1,2,4-triazol-3-amine] | 1000 to 10000 | 100 to 1000 |  |  |  |
| N#Cc1cc(Nc2ncn(-c3cccc(F)c3)n2)cc(N2CCN(C3COC3)CC2)c1 [Compound 793, 3-[[1-(3-fluorophenyl)-1,2,4-triazol-3-yl]amino]-5-[4-(oxetan-3-yl)piperazin-1-yl]benzonitrile] |  |  |  |  | fold induction at 1 µM [1]: 1 to 10; fold induction at 10 µM [1]: ≤ 1 |
| Cc1cc(Nc2ncn(-c3cccc(C(F)F)c3)n2)nc(NC2CCOC2)c1 (stereo not shown) [Compound 689, N6-[1-[3-(difluoromethyl)phenyl]-1,2,4-triazol-3-yl]-4-methyl-N2-tetrahydrofuran-3-yl-pyridine-2,6-diamine] |  |  | 1 to 10 | 1 to 10 |  |
| Cc1cc(Nc2ncn(-c3ccccc3)n2)cc(N2CC(N3CCOCC3)C2)c1 [Compound 704, N-[3-methyl-5-(3-morpholinoazetidin-1-yl)phenyl]-1-phenyl-1,2,4-triazol-3-amine] |  |  | 10 to 100 | ≤ 1 |  |
| CCC1COC(C)CN1CCNc1cc(C)cc(Nc2ncn(-c3cc(F)cc(F)c3)n2)c1 (stereo not shown) [Compound 974, N3-[1-(3,5-difluorophenyl)-1,2,4-triazol-3-yl]-N1-[2-(5-ethyl-2-methyl-morpholin-4-yl)ethyl]-5-methyl-benzene-1,3-diamine] |  |  |  |  | fold induction at 1 µM [1]: 10 to 100; fold induction at 10 µM [1]: ≤ 1 |
| COc1ccc(-n2cnc(Nc3cc(C)cc(N4CCN(C5COC5)CC4)c3)n2)cc1F [Compound 624, 1-(3-fluoro-4-methoxy-phenyl)-N-[3-methyl-5-[4-(oxetan-3-yl)piperazin-1-yl]phenyl]-1,2,4-triazol-3-amine] |  |  | 10 to 100 | ≤ 1 |  |
| Cc1cc(Nc2ncn(-c3ccnc(C)n3)n2)cc(N2CCN(C3COC3)CC2)c1 [Compound 418, N-[3-methyl-5-[4-(oxetan-3-yl)piperazin-1-yl]phenyl]-1-(2-methylpyrimidin-4-yl)-1,2,4-triazol-3-amine] |  |  | ≤ 1 | 10 to 100 |  |
| Cc1cc(Nc2ncn(-c3cc(F)ccc3F)n2)cc(N2CCC(C3COC3)CC2)c1 [Compound 383, 1-(2,5-difluorophenyl)-N-[3-methyl-5-[4-(oxetan-3-yl)-1-piperidyl]phenyl]-1,2,4-triazol-3-amine] | 10 to 100 | 1 to 10 |  |  |  |
| Cc1cc(Nc2ncn(-c3cc(F)cc(F)c3)n2)cc(N2CC(N3CCCC3)C2)c1 [Compound 510, 1-(3,5-difluorophenyl)-N-[3-methyl-5-(3-pyrrolidin-1-ylazetidin-1-yl)phenyl]-1,2,4-triazol-3-amine] |  |  | 1 to 10 | 10 to 100 |  |
| Clc1cccc(-n2cnc(Nc3cc(C4CC4)cc(N4CCN(C5COC5)CC4)c3)n2)c1 [Compound 55, 1-(3-chlorophenyl)-N-[3-cyclopropyl-5-[4-(oxetan-3-yl)piperazin-1-yl]phenyl]-1,2,4-triazol-3-amine] | 100 to 1000 | ≤ 1 |  |  |  |
| Cc1cc(Nc2ncn(-c3ccccc3)n2)cc(N2C[C@@H]3C[C@H]2CN3C2CC2)c1 [Compound 292, N-[3-[(1S,4S)-2-cyclopropyl-2,5-diazabicyclo[2.2.1]heptan-5-yl]-5-methyl-phenyl]-1-phenyl-1,2,4-triazol-3-amine] | 100 to 1000 | 10 to 100 |  |  |  |
